Results taken from US10376499B2, “Combination therapy for treatment of resistant bacterial infections” (priority 2014, dated 2019).

System: A. baumannii
Assay: MIC by broth microdilution (CLSI), panel of 60 A. baumannii clinical isolates (Example 1)

CN(C)[C@@H]1C(O)=C(C(N)=O)C(=O)[C@@]2(O)C(O)=C3C(=O)c4c(O)cccc4[C@@](C)(O)[C@H]3C[C@@H]12 [TET, tetracycline]
> 32 µg/mL: MIC90 (Acinetobacter baumannii) | MIC (Acinetobacter baumannii, strain ARC2461, OXA-66, TEM-1) | MIC (Acinetobacter baumannii, strain ARC2462, TEM-1, OXA-66) | MIC (Acinetobacter baumannii, strain ARC2598, OXA*, TEM-1, OXA-113) | MIC (Acinetobacter baumannii, strain ARC2674, SHV-5, OXA-113) | MIC (Acinetobacter baumannii, strain ARC2681, OXA-40, TEM-1, OXA-132) | MIC (Acinetobacter baumannii, strain ARC2778, OXA-40, TEM-1, OXA-65) | MIC (Acinetobacter baumannii, strain ARC2782, OXA-66, OXA-23, TEM-1, PER-1) | MIC (Acinetobacter baumannii, strain ARC3484, TEM-1, OXA-23, OXA-64) | MIC (Acinetobacter baumannii, strain ARC3486, OXA-72, OXA-66, TEM-1) | MIC (Acinetobacter baumannii, strain ARC3488, OXA*, OXA-68) | MIC (Acinetobacter baumannii, strain ARC3489, OXA*, OXA-68) | MIC (Acinetobacter baumannii, strain ARC3492, OXA-40, OXA-132, TEM-1) | MIC (Acinetobacter baumannii, strain ARC3493, OXA-40, OXA-66) | MIC (Acinetobacter baumannii, strain ARC3495, OXA-40, OXA-109) | MIC (Acinetobacter baumannii, strain ARC3515, OXA-64, OXA-58) | MIC (Acinetobacter baumannii, strain ARC3658, OXA-66, PER-1, TEM-1, OXA-23) | MIC (Acinetobacter baumannii, strain ARC5073, OXA-23, TEM-1, OXA-64, PER-1) | MIC (Acinetobacter baumannii, strain ARC5075, SHV-5, OXA-113) | MIC (Acinetobacter baumannii, strain ARC5076, TEM-1, OXA-23, OXA-66) | MIC (Acinetobacter baumannii, strain ARC5077, OXA*, OXA-72) | MIC (Acinetobacter baumannii, strain ARC5082, OXA-66, OXA-23) | MIC (Acinetobacter baumannii, strain ARC5083, OXA-66, OXA-23) | MIC (Acinetobacter baumannii, strain ARC5085, OXA*, TEM-1) | MIC (Acinetobacter baumannii, strain ARC5086, OXA*, TEM-1, OXA-72, OXA-66) | MIC (Acinetobacter baumannii, strain ARC5087, OXA-66, OXA-23)
1 µg/mL: MIC (Acinetobacter baumannii, strain ARC2058, OXA-95) | MIC (Acinetobacter baumannii, strain ARC5074, GES*, TEM-1, OXA-51)
32 µg/mL: MIC (Acinetobacter baumannii, strain ARC2777, OXA-172, TEM-1) | MIC (Acinetobacter baumannii, strain ARC3485, OXA-82) | MIC (Acinetobacter baumannii, strain ARC5091, OXA-82, OXA-23) | MIC (Acinetobacter baumannii, strain ARC5092, OXA-23, OXA-64)
4 µg/mL: MIC (Acinetobacter baumannii, strain ARC2788, OXA-65, TEM-1) | MIC (Acinetobacter baumannii, strain ARC3491 (A. baumannii/calcoaceticus complex), OXA-215) | MIC (Acinetobacter baumannii, strain ARC5089, PER*, TEM-1, OXA-23, OXA-66)
2 µg/mL: MIC (Acinetobacter baumannii, strain ARC593, OXA-98) | MIC (Acinetobacter baumannii, strain ARC2779 (A. baumannii/calcoaceticus complex), OXA-2, VIM-2) | MIC (Acinetobacter baumannii, strain ARC2780 (A. baumannii/calcoaceticus complex), OXA*, OXA-2, IMP-1) | MIC (Acinetobacter baumannii, strain ARC3494, OXA-65) | MIC (Acinetobacter baumannii, strain ARC5081, OXA-94, OXA-23) | MIC (Acinetobacter baumannii, strain ARC5084, IMP-4(B), OXA-58, OXA-65)
16 µg/mL: MIC50 (Acinetobacter baumannii) | MIC (Acinetobacter baumannii, strain ARC2636, OXA-65, OXA-40, TEM-1) | MIC (Acinetobacter baumannii, strain ARC2675, SHV-5, OXA-113) | MIC (Acinetobacter baumannii, strain ARC3487, OXA-20, OXA-58, OXA-66) | MIC (Acinetobacter baumannii, strain ARC5080, OXA-71, OXA-40) | MIC (Acinetobacter baumannii, strain ARC5088, OXA-20, OXA-58, OXA-66)
8 µg/mL: MIC (Acinetobacter baumannii, strain ARC2635, OXA-65, OXA-40, TEM-1) | MIC (Acinetobacter baumannii, strain ARC2682, SHV-5, OXA-113) | MIC (Acinetobacter baumannii, strain ARC3490, TEM-1+, PSE-2, OXA-69) | MIC (Acinetobacter baumannii, strain ARC3513, TEM-1, OXA-23, OXA-65) | MIC (Acinetobacter baumannii, strain ARC3657, OXA-130) | MIC (Acinetobacter baumannii, strain ARC3659, OXA-23, OXA*) | MIC (Acinetobacter baumannii, strain ARC3882, OXA-23, NDM-1, OXA-10*) | MIC (Acinetobacter baumannii, strain ARC5079, OXA-72, OXA-65)

colistin
8 µg/mL: MIC (strain ARC5091, OXA-82, OXA-23)
0.25 µg/mL: MIC (strain ARC2598, OXA*, TEM-1, OXA-113) | MIC (strain ARC2635, OXA-65, OXA-40, TEM-1) | MIC (strain ARC2674, SHV-5, OXA-113) | MIC (strain ARC2681, OXA-40, TEM-1, OXA-132) | MIC (strain ARC2682, SHV-5, OXA-113) | MIC (strain ARC2778, OXA-40, TEM-1, OXA-65) | MIC (strain ARC2779 (A. baumannii/calcoaceticus complex), OXA-2, VIM-2) | MIC (strain ARC3485, OXA-82) | MIC (strain ARC3486, OXA-72, OXA-66, TEM-1) | MIC (strain ARC3487, OXA-20, OXA-58, OXA-66) | MIC (strain ARC3489, OXA*, OXA-68) | MIC (strain ARC3492, OXA-40, OXA-132, TEM-1) | MIC (strain ARC3495, OXA-40, OXA-109) | MIC (strain ARC3515, OXA-64, OXA-58) | MIC (strain ARC3658, OXA-66, PER-1, TEM-1, OXA-23) | MIC (strain ARC3659, OXA-23, OXA*) | MIC (strain ARC5075, SHV-5, OXA-113) | MIC (strain ARC5076, TEM-1, OXA-23, OXA-66) | MIC (strain ARC5080, OXA-71, OXA-40) | MIC (strain ARC5087, OXA-66, OXA-23)
0.5 µg/mL: MIC (strain ARC593, OXA-98) | MIC (strain ARC2058, OXA-95) | MIC (strain ARC2777, OXA-172, TEM-1) | MIC (strain ARC3490, TEM-1+, PSE-2, OXA-69) | MIC (strain ARC3491 (A. baumannii/calcoaceticus complex), OXA-215) | MIC (strain ARC3494, OXA-65) | MIC (strain ARC3657, OXA-130) | MIC (strain ARC5077, OXA*, OXA-72) | MIC (strain ARC5082, OXA-66, OXA-23)
2 µg/mL: MIC (strain ARC3488, OXA*, OXA-68)
1 µg/mL: MIC (strain ARC3513, TEM-1, OXA-23, OXA-65) | MIC (strain ARC5085, OXA*, TEM-1)
0.125 µg/mL: MIC (strain ARC2461, OXA-66, TEM-1) | MIC (strain ARC2462, TEM-1, OXA-66) | MIC (strain ARC2636, OXA-65, OXA-40, TEM-1) | MIC (strain ARC2675, SHV-5, OXA-113) | MIC (strain ARC2782, OXA-66, OXA-23, TEM-1, PER-1) | MIC (strain ARC2788, OXA-65, TEM-1) | MIC (strain ARC3484, TEM-1, OXA-23, OXA-64) | MIC (strain ARC3882, OXA-23, NDM-1, OXA-10*) | MIC (strain ARC5073, OXA-23, TEM-1, OXA-64, PER-1) | MIC (strain ARC5074, GES*, TEM-1, OXA-51) | MIC (strain ARC5079, OXA-72, OXA-65) | MIC (strain ARC5081, OXA-94, OXA-23) | MIC (strain ARC5083, OXA-66, OXA-23) | MIC (strain ARC5084, IMP-4(B), OXA-58, OXA-65) | MIC (strain ARC5086, OXA*, TEM-1, OXA-72, OXA-66) | MIC (strain ARC5088, OXA-20, OXA-58, OXA-66) | MIC (strain ARC5089, PER*, TEM-1, OXA-23, OXA-66)
32 µg/mL: MIC (strain ARC3493, OXA-40, OXA-66)
>32 µg/mL: MIC (strain ARC5092, OXA-23, OXA-64)
4 µg/mL: MIC (strain ARC2780 (A. baumannii/calcoaceticus complex), OXA*, OXA-2, IMP-1)
